As usually defined, the inhibition is how much of the control response was suppressed. A higher inhibition goes with a response far below the control. The term IC50 denotes the concentration that gives 50% inhibition. Read a low IC50 as greater potency. As usually defined, the GI50 is the concentration at which growth is held to half of that of the control.

SMILES strings stand for the structures.

Data on 7 molecules can be found in ChEMBL document CHEMBL3862012, “Methylene versus carbonyl bridge in the structure of new tubulin polymerization inhibitors with tricyclic A-rings” (Bioorg Med Chem, 2016).

The species named for one experiment is Ovis aries. The experiment is described as follows: Inhibition of sheep brain tubulin polymerization at 100 uM by DAPI staining-based fluorimetric method relative to control.
The nature of experiment [1]: Inhibition of sheep brain tubulin polymerization by DAPI staining-based fluorimetric method. More on the design: species or system Ovis aries.
Experiment [2] can be described thus: Cytotoxicity against human NCI-H460 cells assessed as growth inhibition after 48 hrs by SRB assay. The settings on record: NCI-H460, 48 h. The class given is functional. (In general: Sulforhodamine B stains cellular protein and so reports cell mass.)
Experiment [3] in a line: Cytotoxicity against human DU145 cells assessed as growth inhibition after 48 hrs by SRB assay. It is filed as functional. The conditions noted are these: DU-145, 48 h.
The nature of experiment [4]: Cytotoxicity against human OVCAR3 cells assessed as growth inhibition after 48 hrs by SRB assay. The settings on record: OVCAR-3, 48 h. It is filed as functional.
The nature of experiment [5]: Cytotoxicity against human SF295 cells assessed as growth inhibition after 48 hrs by SRB assay. The class given is functional. The settings on record: SF-295, 48 h.
The nature of experiment [6]: Cytotoxicity against human A498 cells assessed as growth inhibition after 48 hrs by SRB assay. The conditions noted are these: A498, 48 h. The class given is functional.
Experiment [7] is described as follows: Cytotoxicity against human MDA-MB-435 cells assessed as growth inhibition after 48 hrs by SRB assay. The settings on record: MDA-MB-435, 48 h. It is filed as functional.
A short description of experiment [8]: Cytotoxicity against human K562 cells assessed as growth inhibition after 48 hrs by SRB assay. It is filed as functional. The settings on record: K562, 48 h.
Experiment [9] is described as follows: Cytotoxicity against human HCT116 cells assessed as growth inhibition after 48 hrs by SRB assay. The conditions noted are these: HCT-116, 48 h. It is filed as functional.

Regarding `COc1ccc(Cn2c3ccccc3c(=O)c3ccccc32)cc1F`, in the experiment listed under Ovis aries, the inhibition turned out to be 13%.
As for `COc1ccc(CN2c3ccccc3Sc3cccnc32)cc1F`, in the experiment listed under Ovis aries, the inhibition was 72%. Half-maximal inhibition in experiment [1] (IC50) was put at 10.5 µM.
Regarding `COc1ccc(CN2c3ccccc3Oc3ccccc32)c(C(F)(F)F)c1`, the inhibition in the experiment filed under Ovis aries came to 44%.
In turn, `COc1ccc(C(=O)N2c3ccccc3Sc3ccccc32)c(C(F)(F)F)c1` yielded an inhibition in the experiment filed under Ovis aries of 80%. The molecule also displayed an IC50 in experiment [1] of 11.9 µM.
Turning to `COc1ccc(C(=O)c2cc(OC)c(OC)c(OC)c2)cc1O` [PHENSTATIN], the GI50 in [2] turned out to be 18 nM; in [3], 34 nM; in [4], 7 nM; in [5], 163 nM; in experiment [6], 1190 nM. Further, the inhibition in the experiment listed under Ovis aries was 99%. In experiment [1], half-maximal inhibition (IC50) required 3.4 µM.
The molecule `COc1cc([C@@H]2c3cc4c(cc3C[C@H]3COC(=O)[C@@H]32)OCO4)cc(OC)c1OC` [DESOXYPODOPHYLLOTOXIN] came in with an inhibition in the experiment filed under Ovis aries of 100%. Besides, in experiment [1], inhibition was half-maximal at 2 µM (IC50).
For the molecule `COc1ccc(/C=C\c2cc(OC)c(OC)c(OC)c2)cc1O` [COMBRETASTATIN A4], the GI50 is 3 nM in experiment [7], 4 nM in [8] and 2 nM in experiment [9].
